Data taken from article PMC4550478, “Metronidazole-triazole conjugates: Activity against Clostridium difficile and parasites” (European Journal of Medicinal Chemistry, 2015).
pEC50: −log10 of the molar value. Values after ≈ are worked out from the molar mass of the structure shown. Read-outs that look alike come from different tables or passages of the source.

Legend:
[1] = test system: C. difficile NAP1/027 CD26A54_S; experiment: MIC broth microdilution, C. difficile CD26A54_S; type: cell-based, Clostridium difficile; conditions: for MIC: Clostridioides difficile
[2] = MIC against ESKAPE pathogens, aerobic; type: cell-based; conditions: aerobic conditions, single concentration screen, n = 3; read-out: MIC ESKAPE bacteria
Description: All compounds were tested for activity against a set of anaerobic C. difficile bacteria (630 ATCC BAA-1382, NAP1/027 M7404, NAP1/027 ATCC BAA-1803, VPI10463 ATCC 43255, CD26A54_S and CD26A54_R) and representative ESKAPE pathogens S. aureus (MRSA ATCC 43300), E. coli (ATCC 25922), K. pneumoniae (ATCC 700603), A. baumannii (ATCC 19606) and P. aeruginosa (ATCC 27853) using a standard broth microdilution assay. Selected compounds were tested for activity against H. pylori strains (26695, and clinical isolates MtzS 13/25, MtzR 98/285 and MtzR 13/61) using agar plate dilution, and for antimicrobial activity against twelve Gram-positive bacterial strains: Enterococcus faecalis (VanA clinical isolate), Enterococcus faecium (MDR VanA ATCC 51559), Streptococcus pneumoniae (MDR ATCC 700677), S. aureus (MRSA ATCC 43300, MRSA clinical isolate, MRSA/DRSA clinical isolate, GISA NARSA NRS 1, GISA NARSA NRS 17, VRSA NARSA VRS1, VRSA NARSA VRS4 and VRSA NARSA VRS10) using broth microdilution. C. difficile strains were grown at 37 °C in a COY anaerobic chamber (5% H2, 10% CO2, 85% N2). H. pylori strains were grown at 37 °C under a microaerobic atmosphere (5% O2, 10% CO2). All facultative anaerobic bacteria were grown at 37 °C with normal atmospheric oxygen levels. […] Positive growth control of bacteria and DMSO as well as a negative control of only media were included for every plate. Full assay details are provided in the supplementary information.
MICs were determined by a two-fold serial broth micro dilution according to the recommendation of CLSI standards with an inoculum of 5 × 10^5 CFU/mL^4 The compounds along with standard antibiotics were serially diluted twofold across the wells of 96-well non-binding surface plates (NBS, Corning). […] Gram-positive and Gram-negative bacteria were cultured in Mueller Hinton broth (MHB) (Bacto laboratories, Cat. no. 211443) at 37 °C overnight. A sample of each culture was then diluted 40-fold in fresh MHB broth and incubated at 37 °C for 2-3 h. The resultant mid-log phase cultures were diluted to the final concentration of 5 × 10^5 CFU/mL, then 50 μL was added to each well of the compound containing 96-well plates. All the plates were covered and incubated at 37 °C for 24 h.

[3] = test system: G. lamblia BRIS/83/HEPU/106 (106); experiment: ATP-bioluminescence growth and survival assay, G. lamblia 106; type: cell-based; conditions: Giardia duodenalis, read-out: EC50 G. lamblia 106
Description: Compounds were tested for antiparasitic activity against E. histolytica (HM1:1MSS strain) and G. lamblia (WB, BRIS/87/HEPU/713 (713), BRIS/83/HEPU/106 (106) and the metronidazole resistant syngeneic line 713-M3 [[15,16]]) using an ATP-bioluminescence based screen for cell growth and survival [[17,18]]. Assay plates were inoculated with trophozoites (5 × 10^3 parasites/well) and incubated in the GasPak™ EZ Anaerobe Gas Generating Pouch Systems (VWR, West Chester, PA) to maintain anaerobic conditions throughout the incubation period. The assays were performed in triplicate using the CellTiter-Glo Luminescent Cell Viability Assay. Metronidazole was used as a positive control.
Trophozoites of E. histolytica strain HM1:IMSS and G. lamblia strains WB, BRIS/87/HEPU/713 (713),^10 BRIS/83/HEPU/106 (106)^11 and the metronidazole resistant syngenic line 713-M3^10,11 were axenically maintained in TYI-S-33 medium supplemented with penicillin (100 U/ml), streptomycin (100 µg/ml).^12 E. histolytica and G. lamblia trophozoites were counted using a particle counter (Beckman Coulter, Fullerton, CA). All experiments were performed using trophozoites harvested during the logarithmic phase of growth.
A three-fold serial dilution was then performed yielding a concentration range 0.25-625 µM. From this dilution plate, 4 µL were transferred into the 96-well screen plates followed by addition of 96 µL of trophozoites (5,000 parasites) to yield a final 8-point concentration range spanning 0.01- 25 µM. Assay plates were incubated for 48 h at 37 °C in the GasPak^TM EZ Anaerobe Gas Generating Pouch Systems (VWR, West Chester, PA) to maintain anaerobic condition throughout the incubation period. The assays were performed in triplicate using the CellTiter-Glo Luminescent Cell Viability Assay.^13

[4] = 24 hr incubation, read-out: MIC C. difficile NAP1/027 CD26A54_S 24 hr
[5] = CD26A54_S, MtzS (intermediary), 48 h growth, read-out: MIC C. difficile NAP1/027 CD26A54_S 48 h

Cc1ncc([N+](=O)[O-])n1CCn1cc(Cn2cccn2)nn1 [Compound 4g, 1-(2-(2-methyl-5-nitro-1H-imidazol-1-yl)ethyl)-4-((1H-pyrazol-1-yl)methyl)-1H-1,2,3-triazole]
MIC [1, 4]: 2 µg/mL (≈ 6.62 µM)
MIC [1, 5]: 2 µg/mL (≈ 6.62 µM)
MIC [2]: > 32 µg/mL

Cc1ncc([N+](=O)[O-])n1CCn1cc(-c2ncccn2)nn1 [Compound 4j, 1-(2-(2-methyl-5-nitro-1H-imidazol-1-yl)ethyl)-4-(2-pyrimidinyl)-1H-1,2,3-triazole]
MIC [1, 4]: 2 µg/mL (≈ 6.66 µM)
MIC [1, 5]: 2 to 4 µg/mL (≈ 6.66 to 13.3 µM)
MIC [2]: > 32 µg/mL

COc1ccc(-c2cn(CCn3c([N+](=O)[O-])cnc3C)nn2)cc1 [Compound 4b, 1-(2-(2-methyl-5-nitro-1H-imidazol-1-yl)ethyl)-4-(4-methoxyphenyl)-1H-1,2,3-triazole]
MIC [1, 4]: 1 µg/mL (≈ 3.05 µM)
MIC [1, 5]: 1 µg/mL (≈ 3.05 µM)
MIC [2]: > 32 µg/mL
pEC50 [3]: 6.19

Cc1ncc([N+](=O)[O-])n1CCn1cc(CN)nn1.O=C(O)C(F)(F)F [Compound 4t, 1-(2-(2-methyl-5-nitro-1H-imidazol-1-yl)ethyl)-4-(aminomethyl)-1H-1,2,3-triazole trifluoroacetate salt]
MIC [1, 4]: > 64 µg/mL
MIC [1, 5]: > 64 µg/mL
MIC [2]: > 32 µg/mL

COC(=O)c1cn(CCn2c([N+](=O)[O-])cnc2C)nn1 [Compound 4f, 1-(2-(2-methyl-5-nitro-1H-imidazol-1-yl)ethyl)-4-(methoxycarbonyl)-1H-1,2,3-triazole]
MIC [1, 4]: 1 µg/mL (≈ 3.57 µM)
MIC [1, 5]: 2 µg/mL (≈ 7.14 µM)
MIC [2]: > 32 µg/mL
pEC50 [3]: 5.70

Cc1ncc([N+](=O)[O-])n1CCn1cc(CN2CCS(=O)(=O)CC2)nn1 [Compound 4o, 1-(2-(2-methyl-5-nitro-1H-imidazol-1-yl)ethyl)-4-((1,1-dioxothiomorpholin-4-yl)methyl)-1H-1,2,3-triazole]
MIC [1, 4]: > 64 µg/mL
MIC [1, 5]: > 64 µg/mL
MIC [2]: > 32 µg/mL

Cc1ncc([N+](=O)[O-])n1CCn1cc(C(O)c2ccccc2)nn1 (centres unmarked) [Compound 4l, 1-(2-(2-methyl-5-nitro-1H-imidazol-1-yl)ethyl)-4-(1-phenyl-1-hydroxylmethyl)-1H-1,2,3-triazole]
MIC [1, 4]: 2 µg/mL (≈ 6.09 µM)
MIC [1, 5]: 2 µg/mL (≈ 6.09 µM)
MIC [2]: > 32 µg/mL
pEC50 [3]: 5.66

Cc1ncc([N+](=O)[O-])n1CCn1cc(C(=O)O)nn1 [Compound 4s, 1-(2-(2-methyl-5-nitro-1H-imidazol-1-yl)ethyl)-4-(carboxy)-1H-1,2,3-triazole]
MIC [1, 4]: > 64 µg/mL
MIC [1, 5]: > 64 µg/mL
MIC [2]: > 32 µg/mL

Cc1ncc([N+](=O)[O-])n1CCn1cc(CN(C)Cc2ccccc2)nn1 [Compound 4m, 1-(2-(2-methyl-5-nitro-1H-imidazol-1-yl)ethyl)-4-(N-benzyl, N-methylaminomethyl)-1H-1,2,3-triazole]
MIC [1, 4]: 2 µg/mL (≈ 5.63 µM)
MIC [1, 5]: 2 µg/mL (≈ 5.63 µM)
MIC [2]: > 32 µg/mL
pEC50 [3]: 5.96

Cc1ccc(-c2cn(CCn3c([N+](=O)[O-])cnc3C)nn2)cc1 [Compound 4e, 1-(2-(2-methyl-5-nitro-1H-imidazol-1-yl)ethyl)-4-(p-tolyl)-1H-1,2,3-triazole]
MIC [1, 4]: 1 µg/mL (≈ 3.2 µM)
MIC [1, 5]: 1 µg/mL (≈ 3.2 µM)
MIC [2]: > 32 µg/mL
pEC50 [3]: 6.54

Cc1ncc([N+](=O)[O-])n1CCN=[N+]=[N-] [Compound 3, 1-(2-azidoethyl)-2-methyl-5-nitro-1H-imidazole]
MIC C. difficile NAP1/027 CD26A54_S 24 hr ([1]; 24 hr incubation): 2 µg/mL (≈ 10.2 µM)
MIC C. difficile NAP1/027 CD26A54_S 48 h ([1]; CD26A54_S, MtzS (intermediary), 48 h growth): 2 µg/mL (≈ 10.2 µM)

Cc1ncc([N+](=O)[O-])n1CCn1cc(Cc2ccccc2)nn1 [Compound 4k, 1-(2-(2-methyl-5-nitro-1H-imidazol-1-yl)ethyl)-4-benzyl-1H-1,2,3-triazole]
MIC [1, 4]: 1 µg/mL (≈ 3.2 µM)
MIC [1, 5]: 1 µg/mL (≈ 3.2 µM)
MIC [2]: > 32 µg/mL
pEC50 [3]: 6.29

Cc1ncc([N+](=O)[O-])n1CCn1cc(-c2ccccn2)nn1 [Compound 4h, 1-(2-(2-methyl-5-nitro-1H-imidazol-1-yl)ethyl)-4-(2-pyridinyl)-1H-1,2,3-triazole.xTFA]
MIC [1, 4]: 1 µg/mL
MIC [1, 5]: 1 µg/mL
MIC [2]: > 32 µg/mL
pEC50 [3]: 6.42

Cc1ncc([N+](=O)[O-])n1CCn1cc(CO)nn1 [Compound 4q, 1-(2-(2-methyl-5-nitro-1H-imidazol-1-yl)ethyl)-4-(hydroxymethyl)-1H-1,2,3-triazole]
MIC [1, 4]: 16 µg/mL (≈ 63.4 µM)
MIC [1, 5]: 16 to 32 µg/mL (≈ 63.4 to 127 µM)
MIC [2]: > 32 µg/mL

Cc1ncc([N+](=O)[O-])n1CCn1cc(CCO)nn1 [Compound 4p, 1-(2-(2-methyl-5-nitro-1H-imidazol-1-yl)ethyl)-4-(2-hydroxyethyl)-1H-1,2,3-triazole]
MIC [1, 4]: 8 µg/mL (≈ 30 µM)
MIC [1, 5]: 8 µg/mL (≈ 30 µM)
MIC [2]: > 32 µg/mL

Cc1ncc([N+](=O)[O-])n1CCn1cc(-c2ccsc2)nn1 [Compound 4n, 1-(2-(2-methyl-5-nitro-1H-imidazol-1-yl)ethyl)-4-(thiophen-3-yl)-1H-1,2,3-triazole]
MIC [1, 4]: 1 µg/mL (≈ 3.29 µM)
MIC [1, 5]: 1 µg/mL (≈ 3.29 µM)
MIC [2]: > 32 µg/mL
pEC50 [3]: 6.47

Cc1ncc([N+](=O)[O-])n1CCO [Compound 1, metronidazole]
MIC [1, 4]: 1 µg/mL (≈ 5.84 µM)
MIC [1, 5]: 1 µg/mL (≈ 5.84 µM)
MIC [2]: > 32 µg/mL
pEC50 ([3]; MtzS, purified compounds, this study): 5.55

Cc1ncc([N+](=O)[O-])n1CCn1cc(-c2ccc(Cl)c(Cl)c2)nn1 [Compound 4d, 1-(2-(2-methyl-5-nitro-1H-imidazol-1-yl)ethyl)-4-(3,4-dichlorophenyl)-1H-1,2,3-triazole]
MIC [1, 4]: 1 µg/mL (≈ 2.72 µM)
MIC [1, 5]: 1 µg/mL (≈ 2.72 µM)
MIC [2]: > 32 µg/mL
pEC50 [3]: 5.96

Cc1ncc([N+](=O)[O-])n1CCn1cc(-c2ccccc2)nn1 [Compound 4a, 1-(2-(2-methyl-5-nitro-1H-imidazol-1-yl)ethyl)-4-phenyl-1H-1,2,3-triazole]
MIC [1, 4]: 1 µg/mL (≈ 3.35 µM)
MIC [1, 5]: 1 µg/mL (≈ 3.35 µM)
MIC [2]: > 32 µg/mL
pEC50 [3]: 6.55

Cc1ncc([N+](=O)[O-])n1CCn1cc(-c2ccc(Cl)cc2)nn1 [Compound 4c, 1-(2-(2-methyl-5-nitro-1H-imidazol-1-yl)ethyl)-4-(4-chlorophenyl)-1H-1,2,3-triazole]
MIC [1, 4]: 1 to 2 µg/mL (≈ 3.01 to 6.01 µM)
MIC [1, 5]: 2 µg/mL (≈ 6.01 µM)
MIC [2]: > 32 µg/mL
pEC50 [3]: 6.05

Cc1ncc([N+](=O)[O-])n1CCn1cc(CCC(=O)O)nn1 [Compound 4r, sodium 1-(2-(2-methyl-5-nitro-1H-imidazol-1-yl)ethyl)-4-(carboxyethyl)-1H-1,2,3-triazole]
MIC [1, 4]: > 64 µg/mL
MIC [1, 5]: > 64 µg/mL
MIC [2]: > 32 µg/mL

Cc1ncc([N+](=O)[O-])n1CCn1cc(-c2cncnc2)nn1 [Compound 4i, 1-(2-(2-methyl-5-nitro-1H-imidazol-1-yl)ethyl)-4-(5-pyrimidinyl)-1H-1,2,3-triazole]
MIC [1, 4]: 1 µg/mL (≈ 3.33 µM)
MIC [1, 5]: 1 µg/mL (≈ 3.33 µM)
MIC [2]: > 32 µg/mL
